# Columns and labels:
# A53T a-syn oligomers = assay: Luciferase PCA of A53T a-syn oligomers; format: cell-based, human; conditions: for Effect on A53T a-syn oligomers: luciferase PCA, n=3
# Protocol: (§1) Oligonucleotides encoding the specific peptides were synthesized and individually cloned into the pLJM1 nGFP lentiviral vector. HEK293T cells were infected with individual constructs, and cell viability was assessed using Cell Titer-Glo luminescent assay (Promega) at 72 h post infection.
# (§2) Tet-off HEK293 cells stably expressing split luciferase-a-syn constructs and tet-off parent HEK293 cell lines were maintained in DMEM supplemented with 10% FBS and 1% pen/strep/glutamine. […] Cells were trypsinized from subconfluent culture and seeded in a 96-well plate at a density of 15,000 cells per well. Cells were incubated overnight at 37 °C in 5% CO2. Cells were transfected with GFP-peptide plasmids. After 6 h of incubation, 20 µL of cell medium was transferred to a black flat-bottomed 96-well plate. Fifty microliters of Working solution (Pierce Gaussia-Firefly Luciferase Dual Assay Kit, Thermo Scientific, 16181) were added into each well containing cell medium. Immediately after adding the reagent, samples were read using a luminometer with a 480 nm filter.
# A53T a-syn = A53T a-syn protein level in HEK293 cells by immunoblot; format: cell-based, human
# Protocol: Infected or transfected cells were scraped from six-well dishes and lysed with lysis buffer (50 mM Tris-HCl pH 7.4, 1% Nonidet P-40, 150 mM NaCl, 1 mM EDTA, 1× protease inhibitor mixture (Sigma)) for 30 min at 4 °C. The insoluble pellet was removed following a 10,000 rpm spin for 5 min at 4 °C. Lysates were analyzed by SDS-PAGE/immunoblot using 4–20% Mini-PROTEAN Tris-glycine gels (Bio-Rad), transferred to polyvinylidene fluoride (PVDF) membranes, and blocked in 5% milk containing PBS-Tween-20 (0.1%) for 1 h. PVDF membranes were then incubated with specified primary antibodies followed by incubation with horseradish peroxidase-conjugated secondary antibodies (anti-mouse HRP-linked, Cell Signaling, catalog #7076, 1:5000; anti-rabbit HRP-linked, Cell Signaling, catalog #7074, 1:5000) and detected using enhanced chemiluminescence (GE Healthcare). Anti-a-syn antibody (clone 42) was obtained from BD Biosciences (catalog #610787, 1:1000). Anti-LAMP1 antibody was obtained from Abcam (catalog #ab24170, 1:500). Anti-beta-actin antibody was obtained from Cell Signaling (13E5) (catalog #4970, 1:1000). Anti-CD63 antibody was obtained from R&D Systems (catalog #MAB50482-SP, 1:1000).
# Flag-CHMP2B = assay: Co-immunoprecipitation of Flag-CHMP2B with GFP-peptides; format: cell-based; conditions: n = 3
# Protocol: (§3) HEK293T cells were co-transfected with Flag-tagged target protein, HA-tagged source protein, and GFP-tagged peptide or GFP. Cells were lysed 48 h after transfections with radioimmune precipitation assay buffer (50 mM Tris-HCl pH 7.4, 1% Nonidet P-40, 150 mM NaCl, 1 mM EDTA, 10 mM Na3VO4, 10 mM sodium pyrophosphate, 25 mM NaF, 1× protease inhibitor mixture (Sigma)) for 30 min at 4 °C and co-immunoprecipitated with Flag beads (Clontech). The resulting immunocomplexes were analyzed by immunoblot using the appropriate antibodies. Protein samples were separated using 4–20% Mini-PROTEAN Tris-glycine gels (Bio-Rad) transferred to PVDF membranes and blocked in 5% milk containing PBS-Tween-20 (0.1%) for 1 h. PVDF membranes were then incubated with specified primary antibodies followed by incubation with horseradish peroxidase-conjugated secondary antibodies (anti-mouse HRP-linked, Cell Signaling, catalog #7076, 1:5000; anti-rabbit HRP-linked, Cell Signaling, catalog #7074, 1:5000) and detected using enhanced chemiluminescence (GE Healthcare). HA antibodies were obtained from Santa Cruz (catalog #7392, 1:2000), GFP antibodies were purchased from Abcam (catalog #ab290, 1:2000), and Flag antibodies were purchased from Sigma (catalog #A8592, 1:1000).
# [1] = test system: A53T a-syn expressing HEK293 cells; assay: Cell Titer-Glo cell viability, A53T a-syn expressing cells; format: cell-based, human; conditions: for cell viability effect of peptides: A53T a-syn, Supp Figure 1A; for Cell viability: A53T, MG132 10 μM, 72 h; for Effect of MIM motif peptides on cell viability in A53T a-syn expressing cells: Supp Figure 1H
# Procedure, shortened: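 HEK293 cells (1.5 × 10^4 per well, triplicate) were infected with peptide-expressing lentivirus at MOI 5 or transfected with plasmid for 72 h at 37 °C, 5% CO2. Viability was then measured with Cell Titer-Glo, […].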
# WT a-syn oligomers = assay: Luciferase PCA of WT a-syn oligomers; format: cell-based, human; conditions: for Oligomers %: WT oligomers, luciferase activity; for Effect on WT a-syn oligomers: luciferase PCA
# Protocol: as §1, §2
# [2] = test system: A53T a-syn-CHMP2B interaction; assay: Co-immunoprecipitation: disruption of a-syn-CHMP2B interaction; format: cell-based; conditions: HEK293 co-immunoprecipitation
# Protocol: as §3
# Parent HEK293 cells = assay: Cell Titer-Glo cell viability, parent cells; format: cell-based, human; conditions: for Cell viability: MG132 10 μM, 72 h; for cell viability effect of peptides: Supp Figure 1A;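 for cell viability effect of peptides: measured without MG132 proteasome inhibitor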
# Protocol: as §1
# (§4) Cells were trypsinized from subconfluent cultures as described earlier, suspended in culture media, and then seeded into triplicate wells of a 96-well plate (100 µl/well) at a density of 1.5 × 10^4 cells per well with standard culture conditions of 5% CO2 at 37 °C. Cells were infected with lentivirus expressing peptide at a MOI of 5 for 72 h or transfected with plasmid for 72 h. Cell Titer-Glo reagent was added to each well (30 µL), according to the manufacturer’s protocol and […].
# [3] = test system: WT a-syn expressing HEK293 cells; assay: Cell Titer-Glo cell viability, WT a-syn expressing cells; format: cell-based, human; conditions: WT alpha-synuclein; for Cell viability: MG132 10 μM, 72 h; for cell viability effect of peptides: Supp Figure 1A;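 for cell viability effect of peptides: measured without MG132 proteasome inhibitor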
# Protocol: as §1, §4
Substance,Effect on A53T a-syn oligomers (A53T a-syn oligomers),A53T a-syn oligomers as measured by luciferase activity (A53T a-syn oligomers; replicate 1),A53T a-syn oligomers as measured by luciferase activity (A53T a-syn oligomers; replicate 2),A53T a-syn oligomers as measured by luciferase activity (A53T a-syn oligomers; replicate 3),Effect on A53T a-syn protein level (A53T a-syn),Interaction with CHMP2B (Flag-CHMP2B),cell viability effect of peptides ([1]; replicate 1),cell viability effect of peptides ([1]; replicate 2),cell viability effect of peptides ([1]; replicate 3),Cell viability ([1]; replicate 1),Cell viability ([1]; replicate 2),Cell viability ([1]; replicate 3),Effect of MIM motif peptides on cell viability in A53T a-syn expressing cells ([1]; replicate 1),Effect of MIM motif peptides on cell viability in A53T a-syn expressing cells ([1]; replicate 2),Effect of MIM motif peptides on cell viability in A53T a-syn expressing cells ([1]; replicate 3),Oligomers % (WT a-syn oligomers; column 1),Oligomers % (WT a-syn oligomers; column 2),Oligomers % (WT a-syn oligomers; column 3),Oligomers % (WT a-syn oligomers; column 4),Oligomers % (WT a-syn oligomers; column 5),further results
DEEIERQLKALG [PDpep1.3],significant reduction in A53T a-syn oligomers,222198,195592,221562,reduction in a-syn,interacted with Flag-CHMP2B,15000,15800,15200,8500,9100,9000,8764,8800,8162,99.8279%,83.0465%,73.1497%,78.3132%,63.6833%,Effect on cell survival/viability ([1]; A53T a-syn cells): most prominent effects on cell survival; Effect on WT a-syn oligomers (WT a-syn oligomers): significant reduction in a-syn oligomers; Effect on a-syn-CHMP2B interaction [2]: disrupted this a-syn-CHMP2B interaction; Cell viability (Parent HEK293 cells; replicate 1): 4900; Cell viability (Parent HEK293 cells; replicate 2): 4200; Cell viability (Parent HEK293 cells; replicate 3): 4500; cell viability effect of peptides (Parent HEK293 cells; replicate 1): 13700; cell viability effect of peptides (Parent HEK293 cells; replicate 2): 13400; cell viability effect of peptides (Parent HEK293 cells; replicate 3): 13100; Cell viability ([3]; replicate 1): 5800; Cell viability ([3]; replicate 2): 5300; Cell viability ([3]; replicate 3): 6000; cell viability effect of peptides ([3]; replicate 1): 14300; cell viability effect of peptides ([3]; replicate 2): 13800; cell viability effect of peptides ([3]; replicate 3): 14100
"IPIQLKA [PDpep1, initial screen hit peptide IPIQLKA]",significant reduction in A53T a-syn oligomers,221224,258154,261396,reduction in a-syn,interacted with Flag-CHMP2B,12800,14040,13200,5500,5200,5000,5748,5350,5562,91.6523%,79.1738%,70.9983%,79.1738%,65.4045%,Effect on WT a-syn oligomers (WT a-syn oligomers): significant reduction in a-syn oligomers; Cell viability (Parent HEK293 cells; replicate 1): 3800; Cell viability (Parent HEK293 cells; replicate 2): 3900; Cell viability (Parent HEK293 cells; replicate 3): 4100; cell viability effect of peptides (Parent HEK293 cells; replicate 1): 12300; cell viability effect of peptides (Parent HEK293 cells; replicate 2): 12100; cell viability effect of peptides (Parent HEK293 cells; replicate 3): 12500; Cell viability ([3]; replicate 1): 3500; Cell viability ([3]; replicate 2): 3600; Cell viability ([3]; replicate 3): 3700; cell viability effect of peptides ([3]; replicate 1): 12400; cell viability effect of peptides ([3]; replicate 2): 12300; cell viability effect of peptides ([3]; replicate 3): 12500
